Measured values published in PubChem BioAssay (NCI).
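Following 48 hours of exposure in 96-well plates, responses at five concentrations were used to interpolate endpoints linearly. Definition used: TGI = concentration required for complete inhibition of growth.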 Where a SMILES comes first, the peptide text is derived from it. The star is where a group is joined. OSu = O=C1CCC(=O)N1O*

Columns and labels:
Test in all cases: NCI tumour cell line growth inhibition, 48 h
EKVX NSCLC = test system: EKVX NSCLC
HL-60(TB) leukemia = test system: HL-60(TB) leukemia
HOP-62 NSCLC = test system: HOP-62 NSCLC
KM12 colon = test system: KM12 colon
M14 melanoma = test system: M14 melanoma
MOLT-4 leukemia = test system: MOLT-4 leukemia
NCI-H226 lung = test system: NCI-H226 lung
NCI-H522 lung = test system: NCI-H522 lung
OVCAR-4 ovarian = test system: OVCAR-4 ovarian
OVCAR-8 ovarian = test system: OVCAR-8 ovarian
RPMI-8226 leukemia = test system: RPMI-8226 leukemia
SF-295 CNS = test system: SF-295 CNS
SK-MEL-5 melanoma = test system: SK-MEL-5 melanoma
SK-OV-3 ovarian = test system: SK-OV-3 ovarian
SR leukemia = test system: SR leukemia
DU-145 prostate = test system: DU-145 prostate
HCC-2998 colon = test system: HCC-2998 colon
IGROV1 ovarian = test system: IGROV1 ovarian
OVCAR-5 ovarian = test system: OVCAR-5 ovarian

Compound	TGI (EKVX NSCLC) [µM]	TGI (HL-60(TB) leukemia) [µM]	TGI (HOP-62 NSCLC) [µM]	TGI (KM12 colon) [µM]	TGI (M14 melanoma) [µM]	TGI (MOLT-4 leukemia) [µM]	TGI (NCI-H226 lung) [µM]	TGI (NCI-H522 lung) [µM]	TGI (OVCAR-4 ovarian) [µM]	TGI (OVCAR-8 ovarian) [µM]	TGI (RPMI-8226 leukemia) [µM]	TGI (SF-295 CNS) [µM]	TGI (SK-MEL-5 melanoma) [µM]	TGI (SK-OV-3 ovarian) [µM]	TGI (SR leukemia) [µM]	TGI (DU-145 prostate) [µM]	TGI (HCC-2998 colon) [µM]	TGI (IGROV1 ovarian) [µM]	TGI (OVCAR-5 ovarian) [µM]
OC12CCC3(O)c4ccccc4C3C1c1ccccc12 (stereo unspecified)	> 100	> 100	> 100	> 100	> 100	> 100	> 100	> 100	> 100	> 100	> 100	> 100	> 100	> 100	> 100				
O=C(C1OC1c1cccc([N+](=O)[O-])c1)C12CC3CC(CC(C3)C1)C2 (stereo unspecified)	27	15.8	24.3	13.9	22.8	> 22.8	25.9	9.76	15.4	5.92	6.18	17.3	22.9	31.6		26.8	14.5	20.2	18.9
Cc1ccc(C(=O)N/N=C2/C(=O)c3c4ccccc4cc4cccc2c34)cc1	> 100	> 100	43.4	> 84.3	> 100	> 100	> 100	59.8	> 100	> 100	> 87.1	43.2	> 70.7	> 75.9	> 100		> 100	> 85.2	> 100
CN(C)c1ccc(/C=C(\NC(=O)c2ccccc2)C(=O)NC(Cc2c[nH]c3ccccc23)C(=O)O)cc1 (stereo unspecified)	> 100	> 100	> 100	> 100	> 100	> 100	> 100	> 100	> 100	> 100	> 100	> 100	> 100	> 100		> 100	> 100	> 100	> 100
COc1ccc2c3c1OC1C(OC)(OC)CC4(C=C2)CN(C)CCC314 (stereo unspecified)	> 100	> 100	> 100	> 100		> 100	> 100		> 100	> 100	> 100	> 100	> 100	> 100		> 100	> 100	> 100	> 100
O=c1[nH]c(=O)n([C@@H]2O[C@H](CO)[C@@H](O)[C@@H]2F)cc1I	> 100	> 100	> 100	> 100	> 100	> 100	> 100	> 100	> 100	> 100		> 100	> 100	> 100		> 100	> 100	> 100	> 100
O=C(NC1(C(=O)O)CCCC1)c1ccccc1	> 100	> 100	> 100	> 100	> 100	> 100	> 100	> 100		> 100	> 100	> 100	> 100	> 100		> 100	> 100	> 100	> 100
Cc1cn(C2OC(CO)C(O)C2F)c(=O)[nH]c1=O (stereo unspecified)	> 100	> 100	> 100	> 100	> 100	> 100	> 100	> 100	> 100	> 100		> 100	> 100	> 100		> 100	> 100	> 100	> 100
C/C(O)=C(\C=NC(=S)c1ccncc1)C(=O)Nc1ccccc1C	> 100	> 100	> 100	> 100	> 100		> 100		> 100	> 100		> 100	> 100	> 100		> 100	> 100	> 100	> 100
C/C(O[Si](C(C)C)(C(C)C)C(C)C)=C(\C)C(=O)N(C)c1ccccc1Cl	> 100		> 100	> 100	> 100	> 100	> 100	> 100	> 100	> 100	> 100	> 100	> 100			> 100		> 100	> 100
CCOc1cc(-c2nc3cc(F)ccc3s2)ccc1O	24.4			36	33.4		34.2	24.2	43.2	31.2	29.6	35.2	32.2	33		32.2	41.6	26	33.3
[N-]=[N+]=Nc1ccc2c(c1)Sc1ccccc1N2CCCCN1CCN(C(=O)CCNC(=O)Cc2ccc(C(=O)c3ccccc3)cc2)CC1	> 100	5.57	> 100	23	11.8	5.86	> 100	7.51	> 25.6	> 100	4.87	10.1	4.39	> 100		> 100	6.08	> 35.5	51.4
COC(=O)CNC(=O)CCC(C)[C@H]1CCC2C3C(C[C@H](OC(C)=O)[C@@]21C)[C@@]1(C)CCC2(C[C@H]1C[C@H]3OC(C)=O)OOC1(CCCCC1)OO2 (stereo partly specified)	3.74	5.1	1.73	3.64	8.28	11.9	4.65	3.14	3.66	4.16	3.91	18.4	8.12	25	4.21		5.98	2.98	6.62
C[n+]1cn(-c2nc3ccccc3nc2[N-]S(=O)(=O)c2ccccc2)c2ccccc21	> 100	> 100	> 100	> 100	> 100	> 100	> 100	5.27	> 100	> 100	> 100	> 100	> 100	> 100	> 100		> 100	> 100	> 100
COc1ccc2c(c1OC)C(=O)O[C@@H]2[C@H]1c2c(cc3c(c2OC)OCO3)CCN1C			> 100	> 100	> 100	> 100	> 100	> 100	> 100	> 100	> 100	> 100	> 100	> 100	> 100	> 100	> 100	> 100	> 100
CC12CCC(CC1(Cl)Cl)C2 (stereo unspecified)	> 100	> 100	> 100	> 100	> 100	> 100	> 100	> 100	> 100	> 100	> 100	> 100	> 100	> 100	> 100			> 100	> 100
COC(=O)C1(O)C(c2ccccc2)NC2(C)CCCC21 (stereo unspecified)		> 100	> 100	> 100	> 100	> 100	> 100	> 100	> 100	> 100		> 100	> 100	> 100		> 100		> 100	
CN(C)N=Nc1ccc2[nH]c(=O)[nH]c2c1	> 100	83.7	> 100	> 100	> 100		> 100	> 100	> 100	> 100	> 100	> 100	> 100	> 100		> 100	> 100	> 100	> 100
NCCCCC(NC(=O)C(N)Cc1ccc(O)cc1)C(=O)NC(Cc1ccc(O)cc1)C(=O)NC(CCCCN)C(=O)ON1C(=O)CCC1=O (stereo unspecified) (H-YKYK-OSu; configuration not given here)	> 100	> 100	> 100	> 100	> 100	> 100	> 100			> 100	> 100		> 100		> 100		> 100	> 100	> 100
Cc1nc(Nc2ccc(Cl)c(Cl)c2)sc1C(=O)/C=C/c1ccc2c(c1)OCO2	87.2	43.4	36.5	50		44.1	62		33.9	49.6	45.9	45.6	97.4	33.6			88.1	> 100	> 100
C=CCN(CCN(CC=C)S(=O)(=O)c1ccc(C)cc1)S(=O)(=O)c1ccc(C)cc1				> 100	> 100	> 100	> 100	> 100	> 100	> 100		> 100	> 100		> 100	> 100	> 100		
